# Assay results from paper PMC11968506, “Toxicokinetics and analytical toxicology of the phenmetrazine-derived new psychoactive substance 3,4-methylenedioxyphenmetrazine studied by means of in vitro systems” (Archives of Toxicology, 2025).
# Tests used:
# [1] = In vitro plasma protein binding (ultrafiltration, Centrifree); format: in vitro ADME; details: 30 min at 37 °C, triplicate
# Procedure: PPB of MDPM was investigated based on published procedures with minor adjustments (Gampfer et al. [2020]), (Mardal et al. [2016]). A volume of 450 µL fresh human blood plasma was spiked with 50 µL of a 5 µM methanolic solution of MDPM. The mixture was incubated for 30 min at 37 °C. Plasma aliquots of 100 µL and 400 µL were transferred to a new reaction tube (global approach, GA) and onto two-chambered Centrifree devices from Merck (Darmstadt, Germany), respectively. The Centrifree devices were centrifuged for 40 min and 1600×g to obtain 100 µL of ultrafiltrate (UF). UF and GA were precipitated using 50 µL acetonitrile (− 20 °C). The mixture was vortexed, cooled for 30 min at − 20 °C, and centrifuged for 3 min at 18,407×g. […] Experiments were done in triplicate. Fraction unbound (fu) and PPB was determined by comparing the area ratios of MDPM and trimipramine-d3 in the UF and GA using the following equations:1 fu=peak area ratioMDPMUF/ISUF/peak area ratioMDPMGA/ISGA 2 PPB[%]=1-fu∗100
# CYP1A2 = target: T1, CYP1A2 (Homo sapiens, UniProt P05177); experiment: CYP inhibition cocktail assay in pHLM, CYP1A2 (phenacetin)
# T1 sequence (P05177 1-516): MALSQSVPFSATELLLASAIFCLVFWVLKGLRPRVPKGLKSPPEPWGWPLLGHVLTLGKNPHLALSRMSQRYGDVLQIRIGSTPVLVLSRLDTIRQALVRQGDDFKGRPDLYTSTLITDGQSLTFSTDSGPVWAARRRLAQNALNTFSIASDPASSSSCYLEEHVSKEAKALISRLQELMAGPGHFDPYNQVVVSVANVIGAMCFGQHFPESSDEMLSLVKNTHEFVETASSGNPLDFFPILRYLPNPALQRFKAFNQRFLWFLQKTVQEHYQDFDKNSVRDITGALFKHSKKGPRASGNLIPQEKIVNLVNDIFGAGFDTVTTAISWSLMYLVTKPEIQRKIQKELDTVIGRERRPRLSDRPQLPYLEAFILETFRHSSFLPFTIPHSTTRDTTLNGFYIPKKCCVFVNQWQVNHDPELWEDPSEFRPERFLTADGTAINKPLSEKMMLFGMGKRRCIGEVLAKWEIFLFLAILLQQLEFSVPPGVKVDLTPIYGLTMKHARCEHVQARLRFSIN
# Procedure: A modified dual-cocktail based method (Dinger et al. [2014b]) was used. Substrate cocktail A consisted of 8.9 µM dextromethorphan (CYP2D6), 86 µM testosterone (CYP3A4), 3.5 µM diclofenac (CYP2C9), and 12 µM phenacetin (CYP1A2). Substrate cocktail B included 30 µM bupropion (CYP2B6), 2 µM amodiaquine (CYP2C8) and 21 µM omeprazole (CYP2C19). Substrate concentrations were near their respective Michaelis–Menten constant (Km) values (Dinger et al. [2014a]) and all concentrations are final. Enzyme inhibition was investigated using a positive control, a test group, a control group, an interference group, and a negative control. In the test group, specific inhibitors were replaced by MDPM (20 µM). Instead of inhibitors, phosphate buffer was used in the control group. Enzymes were replaced with phosphate buffer in the negative control group. The interference group was incubated like the control group, but the reaction was stopped with 20 µM MDPM in acetonitrile, also containing 2.5 µM trimipramine-d3. All groups were incubated with a NADPH-regenerating system, consisting of 5 mM isocitrate, 2 U/mL isocitrate dehydrogenase, 5 mM Mg^2+, and 1.2 mM NADP^+. Further, substrate cocktail A or B, 90 mM phosphate buffer (pH 7.4), and 200 U/mL superoxide dismutase were added to each group. […] All groups were preincubated for 10 min at 37 °C. […] Enzyme inhibition was evaluated by metabolite formation. […]
# CYP2C9 = CYP2C9 (Homo sapiens, UniProt P11712); experiment: CYP inhibition cocktail assay in pHLM, CYP2C9 (diclofenac); details: inhibitor 20 µM
# Procedure: (§1) A modified dual-cocktail based method (Dinger et al. [2014b]) was used. Substrate cocktail A consisted of 8.9 µM dextromethorphan (CYP2D6), 86 µM testosterone (CYP3A4), 3.5 µM diclofenac (CYP2C9), and 12 µM phenacetin (CYP1A2). Substrate cocktail B included 30 µM bupropion (CYP2B6), 2 µM amodiaquine (CYP2C8) and 21 µM omeprazole (CYP2C19). Substrate concentrations were near their respective Michaelis–Menten constant (Km) values (Dinger et al. [2014a]) and all concentrations are final. Enzyme inhibition was investigated using a positive control, a test group, a control group, an interference group, and a negative control. In the test group, specific inhibitors were replaced by MDPM (20 µM). Instead of inhibitors, phosphate buffer was used in the control group. Enzymes were replaced with phosphate buffer in the negative control group. The interference group was incubated like the control group, but the reaction was stopped with 20 µM MDPM in acetonitrile, also containing 2.5 µM trimipramine-d3. All groups were incubated with a NADPH-regenerating system, consisting of 5 mM isocitrate, 2 U/mL isocitrate dehydrogenase, 5 mM Mg^2+, and 1.2 mM NADP^+. Further, substrate cocktail A or B, 90 mM phosphate buffer (pH 7.4), and 200 U/mL superoxide dismutase were added to each group. […] All groups were preincubated for 10 min at 37 °C. Then, pHLM (0.4 mg microsomal protein/mL) was added to each group except the negative control. Incubations were done for 15 min at 37 °C. Therefore, 50 µL of acetonitrile (− 20 °C) containing 2.5 µM trimipramine-d3 as internal standard was added. Incubations were done in triplicates and organic solvent in the incubation mixture was below 1% (Chauret et al. [1998]). Afterwards the samples were vortexed and centrifuged for 2 min at 18,407×g. 70 µL of the supernatant were transferred to autosampler vials and 10 µL were injected onto the LC-HRMS/MS system. Enzyme inhibition was evaluated by metabolite formation. […] The following settings were used: unpaired; one-tailed; significance level, 0.05; confidence intervals, 99%.
# CYP2C8 = target: T2, CYP2C8 (Homo sapiens, UniProt P10632); experiment: CYP inhibition cocktail assay in pHLM, CYP2C8 (amodiaquine); details: inhibitor 20 µM
# T2 sequence (P10632 1-490): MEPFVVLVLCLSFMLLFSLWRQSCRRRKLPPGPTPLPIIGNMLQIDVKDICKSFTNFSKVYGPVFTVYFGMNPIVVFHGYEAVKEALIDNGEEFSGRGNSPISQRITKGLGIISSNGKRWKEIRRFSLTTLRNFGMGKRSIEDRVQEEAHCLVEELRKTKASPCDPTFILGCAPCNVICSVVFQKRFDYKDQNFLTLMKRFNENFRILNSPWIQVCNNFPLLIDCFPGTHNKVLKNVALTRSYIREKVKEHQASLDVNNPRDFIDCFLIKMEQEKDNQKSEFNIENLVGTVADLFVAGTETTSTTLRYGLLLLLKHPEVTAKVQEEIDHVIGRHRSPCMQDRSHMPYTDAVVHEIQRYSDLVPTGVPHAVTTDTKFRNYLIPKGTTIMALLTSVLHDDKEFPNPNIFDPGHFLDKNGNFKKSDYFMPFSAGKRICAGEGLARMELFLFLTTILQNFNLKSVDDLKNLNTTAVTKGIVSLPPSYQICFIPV
# Procedure: as §1
# CYP2C19 = CYP2C19 (Homo sapiens, UniProt P33261); experiment: CYP inhibition cocktail assay in pHLM, CYP2C19 (omeprazole); details: inhibitor 20 µM
# Procedure: as §1
# Chain of CYP2C19 (P33261 whole entry): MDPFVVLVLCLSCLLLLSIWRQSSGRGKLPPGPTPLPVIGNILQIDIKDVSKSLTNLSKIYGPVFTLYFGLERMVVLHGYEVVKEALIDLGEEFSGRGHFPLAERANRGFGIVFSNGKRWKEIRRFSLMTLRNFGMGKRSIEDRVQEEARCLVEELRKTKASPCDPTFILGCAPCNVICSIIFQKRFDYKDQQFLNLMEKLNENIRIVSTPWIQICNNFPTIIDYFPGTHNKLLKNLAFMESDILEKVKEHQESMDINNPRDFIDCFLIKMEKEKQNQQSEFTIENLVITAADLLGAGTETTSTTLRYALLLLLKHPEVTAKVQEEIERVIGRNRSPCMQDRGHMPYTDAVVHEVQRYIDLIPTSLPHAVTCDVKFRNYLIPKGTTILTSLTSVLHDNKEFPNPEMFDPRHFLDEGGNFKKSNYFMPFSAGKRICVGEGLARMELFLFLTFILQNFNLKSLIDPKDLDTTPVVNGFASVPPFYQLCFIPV
# Chain of CYP2C9 (P11712 whole entry): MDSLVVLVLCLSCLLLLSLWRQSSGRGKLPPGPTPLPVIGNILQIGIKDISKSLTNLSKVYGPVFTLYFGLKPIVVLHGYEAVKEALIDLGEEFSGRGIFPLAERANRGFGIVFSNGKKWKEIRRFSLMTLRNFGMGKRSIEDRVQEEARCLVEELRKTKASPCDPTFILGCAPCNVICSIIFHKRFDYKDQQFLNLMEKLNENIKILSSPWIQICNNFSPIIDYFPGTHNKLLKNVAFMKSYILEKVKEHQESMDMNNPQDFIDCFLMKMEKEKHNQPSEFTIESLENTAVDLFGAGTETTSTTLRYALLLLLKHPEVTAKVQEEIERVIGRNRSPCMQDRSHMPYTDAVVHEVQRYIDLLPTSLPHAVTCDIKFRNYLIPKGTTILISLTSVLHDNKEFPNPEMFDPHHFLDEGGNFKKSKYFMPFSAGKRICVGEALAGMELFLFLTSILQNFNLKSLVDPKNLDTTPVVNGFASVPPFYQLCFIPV
structure (smiles),measurement,setting,value
"CC1NCCOC1c1ccc2c(c1)OCO2 (stereo not shown) [MDPM, 2-(1,3-benzodioxol-5-yl)-3-methylmorpholine]","fraction unbound at 30 min, 0.5 µM","[1]; fresh human blood plasma, read-out: plasma protein binding (PPB) (converted)",0.68
same,plasma protein binding (PPB),[1]; human plasma,32%
same,"inhibition at 15 min, 20 µM","CYP1A2; human, pooled human liver microsomes (pHLM), pH 7.4, probe phenacetin (12 µM)",39%
same,CYP1A2 metabolite formation,"CYP1A2; inhibitor 20 µM, phenacetin 12 µM, pHLM 0.4 mg/mL, 15 min, control without inhibitor = 100%",61%
same,CYP2C9 metabolite formation,"CYP2C9; diclofenac 3.5 µM, pHLM 0.4 mg/mL, 15 min, control without inhibitor = 100%",115%
same,inhibition of CYP2C9,"CYP2C9; diclofenac, pHLM, t-test versus control",no significant inhibition
same,CYP2C8 metabolite formation,"CYP2C8; amodiaquine 2 µM, pHLM 0.4 mg/mL, 15 min, control without inhibitor = 100%",105%
same,inhibition of CYP2C8,"CYP2C8; amodiaquine, pHLM, t-test versus control",no significant inhibition
same,CYP2C19 metabolite formation,"CYP2C19; omeprazole 21 µM, pHLM 0.4 mg/mL, 15 min, control without inhibitor = 100%",86%
same,inhibition of CYP2C19,"CYP2C19; omeprazole, pHLM, t-test versus control",no significant inhibition
